{"source": "patent US9808470B2", "about": "“Estrogenic components for use in the treatment of neurological disorders” (UNIVERSITE DE LIEGE, priority 2012, dated 2017)", "assay_type_in_all_cases": "in vivo", "key": {"[1]": {"test": "Ex.3 neuroprotective HIE rat model: brain weight", "settings": "PND14", "experimental": "Animals were then perfused transcardially with 0.9% saline solution at 4° C., and then with 4% paraformaldehyde in a 0.1-mol/L phosphate-buffered saline solution (pH 7.4) at 4° C. The brains were quickly isolated, weighed and immersed in the same fixative solution at 4° C. for 24 hours, dehydrated with a graded series of ethanol and xylene, and embedded in paraffin.\n(§1) Newborn rat pups were assigned to one of the following 6 groups from postnatal day 4: Sham group (n=24), Vehicle group (n=14), E4 1 mg/kg/per day group (n=11), E4 5 mg/kg/per day group (n=14), E4 10 mg/kg/per day group (n=14), or E4 50 mg/kg/per day group (n=19). From postnatal day 4, rat pups were intraperitoneally injected either vehicle (Vehicle group) or E4 (1, 5, 10, or 50 mg/kg/per day in accordance to the E4 group assignment) or neither vehicle nor E4 (Sham group). At day 7, 30 minutes after last injection, animals were anesthetized with isoflurane (induction, 3.0%; maintenance, 1.5%), and the rat pups from Vehicle and E4 groups passed through surgery encompassing left common carotid artery double ligation and cut. After the procedure, the pups were returned to their dams and were allowed to recover for 1 hour. The pups were then placed in the humidified hypoxic in vivo cabinet (CoyLab, Grass Lake, Mich., USA). Hypoxia was produced by the inhalation of 11%-8% of oxygen balanced by nitrogen at decreased concentration of oxygen for 20 minutes, followed by inhalation of 8% oxygen and 92% nitrogen at constant concentration for 35 minutes. All the manipulations were performed at 37° C. The Sham group went through similar procedures without left common carotid artery ligation followed by hypoxia nor injection. Rat pups recovered with their dams and reared normally until being sacrificed at postnatal day 14."}, "[2]": {"tested_on": "Microtubule-associated protein 2 (MAP2)", "test": "Ex.3 neuroprotective HIE rat model: MAP2 staining", "settings": "PND14", "experimental": "The brain sections were processed for immunohistochemical detection of neuronal cytoskeletal disruption. For antigen retrieval, the sections were heated in 10 mmol/L citrate buffer (pH 6.0) at 100° C. for 10 minutes. Endogenous peroxidase activity was blocked with 3% hydrogen peroxide for 10 minutes and after a second blocking with 5% normal goat serum, the sections were incubated with anti-microtubule-associated protein 2 (MAP2) antibody, diluted 1:1000 (mouse monoclonal antibody; Sigma, St. Louis, Mo., US) 1 h at room temperature. After rinsing, biotinylated goat anti-mouse immunoglobulin G (Vector Laboratories, Burlingame, Calif.) was added, and antibody detection was performed with the avidin-biotin complex method (Vector Laboratories), with 3,3′-diaminobenzidine (DAB) as the chromogen. Following the reaction with DAB, the slides were washed, dehydrated, and coverslipped.\nSamples were analyzed with the aid of an image scanner (Nanozoomer Virtual Microscopy, Hamamatsu, Tokyo, Japan) and the ImageJ software (NIH, US). The MAP2 positive areas in the ipsilateral and contralateral hemispheres were measured. The ratio of the MAP2 positive areas was calculated as the MAP2 positive area of the ipsilateral hemisphere divided by the MAP2 positive area of the contralateral hemisphere. The ratio of the MAP2 positive area in the Sham group was considered by default as 1.0.\nas §1, with “Rat pups recovered with their dams and reared normally until being sacrificed at postnatal day 14.” left out"}, "[3]": {"tested_on": "vascular endothelial growth factor (VEGF)", "test": "Ex.8 therapeutic HIE rat model: VEGF staining", "settings": "5 mg/kg/day E4, hippocampus (same region)", "experimental": "To study the therapeutic effect of estetrol, newborn rat pups were assigned to one of the following 14 groups at postnatal day 7 (FIG. 23(B)): Sham group (n=12), Vehicle (n=15), 5 mg/kg/day E4 (n=11), 10 mg/kg/day E4 (n=11), 5 mg/kg/day E4+1.6 mg/kg/day PROG (n=11), 10 mg/kg/day E4+1.6 mg/kg/day PROG (n=11), 5 mg/kg/day E4+16 mg/kg/day PROG (n=11), 10 mg/kg/day E4+16 mg/kg/day PROG (n=13), 5 mg/kg/day E4+136 ng//kg/day E2 (n=11), 10 mg/kg/day E4+136 ng/kg/day E2 (n=11), 5 mg/kg/day E4+1.6 mg/kg/day PROG+136 ng/kg/day E2 (n=12), 10 mg/kg/day E4+1.6 mg/kg/day PROG+136 ng/kg/day E2 (n=11), 5 mg/kg/day E4+16 mg/kg/day PROG+136 ng/kg/day E2 (n=11), 10 mg/kg/day E4+16 mg/kg/day PROG+136 ng/kg/day (n=12) groups. […] After surgery, the pups were returned to their dams and allowed to recover for 1 hour. The pups were then placed in a humidified hypoxic in vivo cabinet (CoyLab). […]\nThe sections were heated in 10 mmol/L citrate buffer (pH 6.0) at 100° C. for 10 minutes. […] Samples were analyzed with the aid of a microscope (Olympus Vanox AHBT3, Olympus), and the ImageJ software 15 (NIH). The percentage of positively stained cells was quantified as a sum of positively stained either DCX or VEGF cells divided by the total number of DAPI positive cells expressed in percentage."}, "[4]": {"settings": "10 mg/kg E4 ip PND4-7 before HI"}, "[5]": {"settings": "50 mg/kg E4 ip PND4-7 before HI"}}, "data": [{"smiles": "C[C@]12CC[C@@H]3c4ccc(O)cc4CC[C@H]3[C@@H]1[C@@H](O)[C@@H](O)[C@@H]2O", "note": "[E4, 1,3,5(10)-estratrien-3,15α,16α,17β-tetrol]", "values": [{"measurement": "brain weight", "setting": "[1]; 1 mg/kg E4 ip PND4-7 before HI", "value": "1.155 ± 0.022", "unit": "g"}, {"measurement": "brain weight", "setting": "[1]; 5 mg/kg E4 ip PND4-7 before HI", "value": "1.181 ± 0.023", "unit": "g"}, {"measurement": "brain weight", "setting": "[1]; [4]", "value": "1.179 ± 0.012", "unit": "g"}, {"measurement": "brain weight", "setting": "[1]; [5]", "value": "1.163 ± 0.016", "unit": "g"}, {"measurement": "ratio of MAP2-positive area (ipsilateral/contralateral)", "setting": "[2]; 1 mg/kg E4 ip PND4-7 before HI", "value": "0.929±0.019"}, {"measurement": "ratio of MAP2-positive area (ipsilateral/contralateral)", "setting": "[2]; 5 mg/kg E4 ip PND4-7 before HI", "value": "0.889±0.063"}, {"measurement": "ratio of MAP2-positive area (ipsilateral/contralateral)", "setting": "[2]; [4]", "value": "0.898±0.022"}, {"measurement": "ratio of MAP2-positive area (ipsilateral/contralateral)", "setting": "[2]; [5]", "value": "0.922±0.031"}, {"measurement": "VEGF positively stained cell percentage", "setting": "[3]", "value": "54.05±3.51", "unit": "%"}]}]}
